From a melting point compilation (Tetko et al.; mined from patent text by program, amines drawn as free bases though some values may be those of a salt)

First: CC1(C)Oc2ccc(C#N)cc2[C@@H](NC2=C(Cl)C(=O)CC2)[C@@H]1O (relative stereo)
Second: CC1(C)OC(=O)Nc2ccc(-c3cc(C#N)ccc3F)cc21
The melting point of the first is higher: 288 to 289 °C for the first, 229 to 230 °C for the second.

First: CC1=C(Nc2ccc(C3=NNC(=O)CC3C)cc2)CCC1=O (stereo unspecified)
Second: CC(=O)Nc1ccc(C2=NNC(=O)Cc3cc4c(cc32)OCO4)cc1
The melting point of the first is higher: 285 to 286 °C for the first, 177 to 180 °C for the second.

Compared with `Cc1ccn(C)c(=S)n1`, `Cc1cc(C2=NCCc3ccccc32)n(C)n1` is lower in melting point: 138 to 140 °C for the first, 112 °C for the second.

First: CCOC(=O)c1cccc(C)c1S(=O)(=O)NC(=O)Nc1nc(OCC(F)(F)F)nc(N(C)C)n1
Second: CCOC(=O)/C(C)=C(/C)c1cccc(OCc2nc(-c3ccc(C(F)(F)F)cc3)oc2C)c1
The melting point of the first is higher: 134 to 142 °C for the first, 115 to 116 °C for the second.

Compared with `Cc1ccc(C)c(SCCCCCCCC(=O)O)c1`, `CCCCCCCCCCc1ccc2cc(O)c(SC)cc2c1` is higher in melting point: 60 to 63 °C for the first, 65.5 to 66 °C for the second.

Compared with `COC(=O)c1cc2ccc(OC)cc2cc1/N=C/N(C)C`, `COC(=O)c1cc(I)cc(C)c1OC` is lower in melting point: 122 to 124 °C for the first, 55 to 57 °C for the second.

First: CCc1cc(C(=O)CBr)ccc1O
Second: CCCCc1c(C(=O)O)c2ccccc2n1C
The melting point of the first is higher: greater than 260 °C for the first, 163 to 165 °C for the second.

Compared with `Cc1c(C)c(N2CCN(C(=O)OC(C)(C)C)CC2)c(C)c2c1OC(C)(C)C2N1CCCC1` (stereo unspecified), `CC(=O)SCC1(C)C(=O)N2CCCC(C(=O)OC(C)(C)C)N2C1=O` (stereo unspecified) is lower in melting point: 127 to 128 °C for the first, 78 to 79 °C for the second.

First: O=C(NCCNC(=O)C1CCNC1)OCc1ccccc1 (stereo unspecified)
Second: COC(=O)NNC(=O)C=Cc1ccccc1
The melting point of the first is lower: 129 to 131 °C for the first, 165 °C for the second.

First: CC12CCC(=O)C(CSc3ccccc3)=C1CCC1C2CCC2(C)C1CCC2(C)O (stereo unspecified)
Second: CSc1nc(N)c(C#N)c(N2CCc3ccccc3CC2)n1
The melting point of the first is lower: 123 to 130 °C for the first, greater than 200 °C for the second.

Compared with `Cc1cc(C(C)C)cc(C)c1CCl`, `Cc1cc(=O)n(-c2cc(C(=O)OC(C)C)c(Cl)cc2F)c(=O)[nH]1` is higher in melting point: 63 to 65 °C for the first, 134 to 136 °C for the second.

First: COc1cc(OC)c(C23CC4CC(CC(C4)C2)C3)cc1C(=O)Oc1ccc(C(=O)O)cc1
Second: COC(=O)c1c(C(=O)OC)c(-c2ccc(OC)cc2)c2cc3c(cc2c1O)OCO3
The melting point of the first is higher: 236 to 238 °C for the first, 169 to 171 °C for the second.

First: CCOC(=O)C1=C(C)Nc2nc(N3CCOCC3)nc(N3CCOCC3)c2C1c1ccsc1 (stereo unspecified)
Second: COc1ccc(C2=Nc3ccc(N4CCOCC4)cc3C(=O)C2)cc1
The melting point of the first is lower: 208 °C for the first, 302 to 304 °C for the second.

First: O=C1OC(c2ccccc2)(c2ccccc2)C2CN(c3nc4ccccc4o3)CCN12 (stereo unspecified)
Second: O=C(O)c1ccc(-c2c(-c3ccccc3)[nH]c3ccccc23)cc1
The melting point of the first is higher: 260 °C for the first, 252 to 253 °C for the second.

First: Cc1cc(C)cc(S(=O)(=O)c2nnc(C(F)(F)F)s2)c1
Second: O=S(=O)(Oc1ccc2ncc3c(c2c1)CCCC3)C(F)(F)F
The melting point of the first is higher: 110 °C for the first, 80 to 81 °C for the second.

First: COc1ccc(-c2cc(Br)c3cc(OC)ccc3n2)cc1
Second: COc1ccc(-c2ccc(C(C)O)cc2)cc1 (single isomer, unassigned; (+))
The melting point of the first is higher: 157 to 158 °C for the first, 132 to 133 °C for the second.

First: Clc1nc(Cl)nc(NC2CC2)n1
Second: Nc1cc(C(F)(F)F)ccc1NC1CCCCC1
The melting point of the first is higher: 99 to 101 °C for the first, 70 °C for the second.

First: CCCCCCCCP(=O)(O)CCCCCCCC
Second: CCCCCCCCCCCCCCOc1cccc(CBr)c1CBr
The melting point of the first is higher: 84 to 86 °C for the first, 55.7 to 56.5 °C for the second.

First: Cc1cc(NC2=NCCN2CCNC(=O)Nc2ccc(C(=O)O)cc2)nc(C)n1
Second: Cc1nn(-c2ccc(C#N)c(Cl)c2)c(C)c1Cc1ccc(C(=O)N2CC(O)C2)cc1
The melting point of the first is higher: 160 °C for the first, 115 to 117 °C for the second.

Going from `CNn1c(N(C)C)n[nH]c1=O` to `CC(C)(C)OC(=O)NCc1nc(C(=O)O)cs1`, the melting point rises from 129 °C to 185 °C.

First: Cc1[nH]c(=O)c(C#N)cc1-c1ccncc1
Second: O=[N+]([O-])c1ccc2nc(-c3cccs3)oc2c1
The melting point of the first is higher: greater than 300 °C for the first, 208 to 210 °C for the second.

First: CCOC(=O)C1=C(CC)NCN(c2ccc(Cl)cc2)C1=O
Second: NC(=O)Cc1ccc2c(c1)sc1ccc(Cl)cc12
The melting point of the first is higher: 118 to 120 °C for the first, 92 to 99 °C for the second.

First: CC(=O)NCc1ccc(CN2CCN(c3ccc(Cl)cn3)CC2)cc1
Second: CN1CCN(Cc2cccc(OCc3ccc4ccccc4n3)c2)CC1
The melting point of the first is higher: 155 to 156 °C for the first, 47 to 49 °C for the second.

Compared with `CN(c1ccccc1)c1nc(N)nc2nc[nH]c12`, `Cc1cccc(Oc2ccc3ccc(N)nc3n2)c1` is lower in melting point: 147 to 152 °C for the first, 100 °C for the second.

Compared with `CN(C)c1c(CC(=O)O)cccc1C(=O)c1ccccc1`, `O=C(O)C(=O)c1cc(F)ccc1NC(=O)c1ccc(-c2ccccc2)cc1` is higher in melting point: 144 to 146 °C for the first, 204 to 206 °C for the second.

Compared with `CN(C)C=Nc1c(Cl)cc(N=Cc2cccc(C(F)(F)F)c2)cc1Cl`, `FC(F)(F)c1cccc(OC(c2ccc(Cl)cc2)c2nnn[nH]2)c1` (stereo unspecified) is higher in melting point: 62 to 64 °C for the first, 124 to 126 °C for the second.

First: CCCOC(=O)N1CCN(C(=O)c2cc(S(=O)(=O)N(C)C)ccc2N)CC1
Second: CCCc1cc(NC(=S)N2CCN(c3cc(OC)cc(OC)c3)CC2)c(OC)nc1C
The melting point of the first is higher: 174 to 176 °C for the first, 143 to 144 °C for the second.

Compared with `CCCC(C)(N)Cc1c[nH]c2ccccc12` (stereo unspecified), `O=C(O)CCCCCc1ccc2ccccc2n1` is higher in melting point: 73.5 to 74.5 °C for the first, 105 to 108 °C for the second.

Going from `CCCCOc1c(CNC(=O)OC(C)(C)C)n(CC(C)C)c(=O)c2ccc(-c3nc(C)c(C(N)=O)s3)cc12` to `CCOC(=O)c1ccc(-c2ccc(OCCO)c(-c3ccc(N(CC)CC)c(C(C)(C)C)c3)c2)cc1`, the melting point falls from 234 °C to 127 °C.

First: CCOC(=O)c1nc(SC)n2c1c(=O)n(C)c1cc(C(F)(F)F)ccc12
Second: CC(=O)Nc1ccc(Sc2c(-c3ccc(S(C)(=O)=O)cc3)cnn(CC(F)(F)F)c2=O)cc1
The melting point of the first is higher: 202 to 204 °C for the first, 191 to 193 °C for the second.

Compared with `C(=Cc1cccnc1)c1ccc(C2OCCO2)cc1`, `O=C1NC(=O)C(c2ccc(O)cc2)N1` (stereo unspecified) is higher in melting point: 117 to 119 °C for the first, 262 °C for the second.

First: COc1cc2c(c3c1OC(C)(C)C3)C(c1ccc(NS(C)(=O)=O)cc1)=NC(C)(C)C2
Second: CCOc1ccc2c(c1)n(C1CCCCC1)c(=O)n2S(=O)(=O)c1ccc(C(=O)NC2Cc3ccccc3C2)cc1OC
The melting point of the first is higher: 235 to 237 °C for the first, 160 °C for the second.

First: CCOCc1nc2c(N)nc3ccccc3c2n1CCCC(=O)OCC
Second: COc1cc2c(cc1OC)CN(CCCCNC(=O)c1cc(Br)ccc1OCCF)CC2
The melting point of the first is higher: 129 to 131 °C for the first, 119 to 121 °C for the second.

Compared with `Nc1cc(N2CCCC2=O)c(Cl)cc1Cl`, `COC(=O)Oc1cc(N2C(=O)C3=C(CCCC3)C2=O)c(F)cc1Cl` is lower in melting point: 168 to 170 °C for the first, 138 to 146 °C for the second.

First: CC(C)C/C=C(\C[C@H](N)C(=O)O)C(=O)O
Second: CC(=O)Nc1ccc(C=CC(=O)C(C)CC(=O)O)cc1 (stereo unspecified)
The melting point of the first is higher: 190 to 199 °C for the first, 189 to 190 °C for the second.

First: CNC1=Nc2ccc(Br)cc2C(c2ccccc2)=NC1
Second: CN1c2ccccc2C(c2ccccc2Br)=Nc2cccnc21
The melting point of the first is higher: 234 to 235 °C for the first, 139 to 140 °C for the second.

First: COc1ccc(C(=O)c2nccs2)cc1OCc1ccc2ccccc2c1
Second: COCOc1ccc(C(=O)COc2cc(OCc3ccccc3)ccc2CO)c(OCc2ccccc2)c1
The melting point of the first is lower: 80 °C for the first, 115 to 118 °C for the second.

First: C=CCCn1cnc2c1c(=O)n(CCCC)c(=O)n2CCCC
Second: CCCC12CCC(=O)C=C1c1c(cc(OCC(=O)OCC)c(Cl)c1Cl)C2OC(C)=O (stereo unspecified)
The melting point of the first is lower: 41 to 42 °C for the first, 128 to 130 °C for the second.

Going from `Oc1cc(-c2ccco2)c2oc(-c3ccc(O)c(F)c3)nc2c1` to `CSc1cc(C(C)C)c(NC(=O)C2c3ccccc3COc3ccc(C)cc32)c(C(C)C)c1` (stereo unspecified), the melting point falls from 155 °C to 126 °C.

First: Cn1nc([N+](=O)[O-])nc1Br
Second: CON(C)C(=O)c1cc(Br)cc([N+](=O)[O-])c1N
The melting point of the first is lower: 90.5 to 91.5 °C for the first, 129 °C for the second.

First: COc1ccc(-c2cn3ccccc3n2)cc1OC
Second: COc1ccc(CCNC(=O)C(=O)Nc2cccnc2)cc1OC1CCCC1
The melting point of the first is lower: 96 °C for the first, 167 °C for the second.

First: Cc1nccn1-c1ccc(NC(=O)CCc2cnoc2-c2ccc(Cl)cc2)cn1
Second: O=C(COc1cccc(-n2nc(-c3ccc(F)cc3)c3cccnc32)c1)N1CCOCC1
The melting point of the first is higher: 193 to 194 °C for the first, 141 to 143 °C for the second.

First: COCCOCOc1ccc2cc(C(=O)CNCc3cccc(-c4ccc(Nc5ccccc5C(=O)O)cc4)c3)ccc2c1
Second: NC(CCOc1ccc(C(=NO)C(=O)NC2CN(C(C(=O)O)c3ccc(OCc4ccccc4)cc3)C2=O)cc1)C(=O)O (stereo unspecified)
The melting point of the first is lower: 72 °C for the first, 164 to 168 °C for the second.

First: CN1CCN(c2ccc(C(=O)N3CCCCc4ccccc43)c(Cl)c2)CC1
Second: O=C1Nc2ccccc2Cc2sccc21
The melting point of the first is lower: 138 to 140 °C for the first, 225 to 236 °C for the second.

First: COC(=O)c1ccc2c(c1)S(=O)(=O)c1ccccc1N=C2
Second: O=C(Cn1nc(-c2ccccc2O)nc1-c1ccccc1O)NC(CO)CO
The melting point of the first is lower: 181 to 182 °C for the first, 212 to 214 °C for the second.

Compared with `CCOc1c(OC)cc(C(=O)OC)c(-c2c(C(=O)OC)cc(OC)c3c2OCO3)c1OCC`, `COc1ccc(C2(CCN3CCC(C(O)(c4ccccc4)c4ccccc4)CC3)CCN(C(=O)c3cc(OC)c(OC)c(OC)c3)C2)cc1OC` (stereo unspecified) is lower in melting point: 107 to 108 °C for the first, 95 to 97 °C for the second.

First: COc1ccc2c(c1)N(CCCN1CCC(CCO)CC1)c1cccc(SC)c1S2
Second: COc1ccc2[nH]c3c(c2c1)C(C(=O)O)CCC3 (stereo unspecified)
The melting point of the first is lower: 101 to 103 °C for the first, 175 to 177 °C for the second.

Going from `Nc1ncc(C(=O)Cl)cc1Cl` to `CC(=O)OC1CSC(Oc2cnc(-c3ccncc3)c(Cl)c2)C(OC(C)=O)C1OC(C)=O` (stereo unspecified), the melting point falls from greater than 250 °C to 153 °C.

First: CN(C)C(=O)c1sc(C(c2ccc(Cl)cc2)c2c(Cl)cc(-n3ncc(=O)[nH]c3=O)cc2Cl)nc1-c1ccccc1 (stereo unspecified)
Second: CS(=O)(=O)c1ccc(-n2nc(CNC(=O)Nc3cccc(C(F)(F)F)c3)cc2-c2ccccc2)cc1
The melting point of the first is higher: 150 °C for the first, 108 to 113 °C for the second.

First: CCNc1cc(NS(=O)(=O)c2ccc(N)cc2)nc(NCC)n1
Second: CC1C2C(C(=O)N1Cc1ccc3c(c1)OCO3)C(c1ccc(Br)cc1)N(C)C2(C)C (stereo unspecified)
The melting point of the first is higher: 245 to 250 °C for the first, 142 to 144 °C for the second.

`O=C1N(Cc2sc(C(F)(F)F)cc2O)c2ccccc2C12COc1cc3c(cc12)OCO3` (stereo unspecified) showed a melting point of 225 to 227 °C.
